How the values were obtained:
[1] = test system: patients with cluster headache; test: Cluster headache study: tolerability and adverse events; type: in vivo, human
Protocol: Sessions were conducted in the Neurobiological Studies Unit (NSU) at VACHS. Subjects reported to the NSU at 08:00; urine drug, urine pregnancy (when applicable), and alcohol breathalyzer tests were required to be negative in order to proceed. After a standard light breakfast, an intravenous line was placed and baseline measures were collected. Subjects typically received the drug capsule between 08:30 and 09:30. Blood pressure, heart rate, and peripheral oxygenation were measured at baseline and throughout experimental sessions. Drug effects (overall, anxiety/fear, sleepiness/sedation, nausea, joy/intense happiness, peace/harmony) were self-reported on a 0-3 scale (0=none, 1=minimal, 2=moderate, 3=definite) at baseline and throughout experimental sessions. Psychedelic effects were self-reported at the end of experimental sessions using the validated 5-Dimensional Altered States of Consciousness (5D-ASC) scale. Subjects were discharged from the NSU at 6 hours after capsule ingestion or once physiological and psychological drug effects had resolved. Subjects were not allowed to drive themselves after experimental sessions. Emergency contacts, including 24-hour/7-day psychiatry services, were provided to all subjects.
Telephone follow-up was performed the day after each experimental session and weekly for two weeks and at 2, 3, and 6 months after the last experimental session.

[2] = test system: patients with migraine headache; test: Placebo-controlled cross-over study of a single low oral dose of psilocybin in migraine headache: headache diary burden; type: in vivo, human
From the text: The purpose of this exploratory study was to investigate the effects of a single low dose of psilocybin in patients with migraine headache in a controlled experiment. Basic information was gathered to assist in the development of future studies considering the effects and mechanism of action of 5-HT2A receptor compounds in migraine and other headache disorders.
This study was registered on clinicaltrials.gov (NCT03341689) with approvals from the Human Studies Subcommittee of Veterans Affairs Connecticut Healthcare System (VACHS) and the Human Investigations Committee of Yale University School of Medicine. The study was conducted under an approved Investigational New Drug application (#124,874) with the US Food & Drug Administration, under a Schedule 1 license (author DCD). Psilocybin was provided by author NC from the University of Wisconsin. Weight-based capsules of psilocybin 0.143 mg/kg and matching placebo [microcrystalline cellulose; obtained from Fagron (St. Paul, Minn.)] were compounded into identical blue gel capsules by the VACHS Investigational Research Pharmacy for each subject.
Adults (age 21 to 65 years, inclusive) free from serious medical or psychiatric disease with migraine headache as defined by the International Classification of Headache Disorders III-beta and with a frequency of migraine attacks of 2 per week or more were eligible to participate in this study. Among the excluded medical conditions were uncontrolled hypertension, coronary artery disease, cardiac arrhythmia, cerebrovascular disease, and serious central or peripheral nervous system or spinal disease (e.g., multiple sclerosis, amyotrophic lateral sclerosis). Psychotic or manic disorders in the subject or a first degree relative was also excluded, as were substance abuse within the past 3 months and any prior serious adverse event with psilocybin, LSD, or related compounds (i.e., mescaline). Prior exposure to psilocybin or related compounds through recreational or medicinal use or through participation in other research studies was not excluded, although any use in the past 3 months was prohibited. Alcohol use within one week of the first experimental test day was prohibited. Caffeine and nicotine were not restricted. Subjects were required to be free from serotonergic antidepressants (selective serotonin reuptake inhibitors, serotonin and norepinephrine reuptake inhibitors, monoamine oxidase inhibitors, tricyclics) for at least 6 weeks, serotonergic antiemetics (i.e., ondansetron) for at least 2 weeks, and vasoconstrictive medications (i.e., pseudoephedrine) for at least 5 half-lives of said medication. Triptans were permitted, but no more than twice weekly and not within 5 half-lives of said triptan before each test day and not within 5 half-lives of psilocybin (15 hours) after each test day.
Subjects were instructed to maintain a headache diary starting two weeks before the first experimental session until two weeks after the second experimental session. Subjects documented every headache attack, migraine (with associated migrainous symptoms) or otherwise (without associated migrainous symptoms; not counted as a migraine attack). Associated symptoms—photophobia (light sensitivity), phonophobia (sound sensitivity), nausea/vomiting—as well as attack-related functional impairment were documented using a 0-3 visual analog scale (VAS): 0=none, 1=mild, 2-moderate, 3=severe. The abortive medications taken and their effects were also recorded in the diary. Only the 14 days prior to the first experimental session (baseline) and the 14 days after each experimental session (inclusive) were counted in the final analysis.
Subjects completed two experimental sessions, separated by at least 14 days, which were conducted in the Neurobiological Studies Unit (NSU) at VACHS. Subjects reported to the NSU at 08:00; urine drug, urine pregnancy (when applicable), and alcohol breathalyzer tests were required to be negative in order to proceed. […]

[3] = of 10 subjects, 14 days after single oral dose 0.143 mg/kg
[4] = single oral dose 0.143 mg/kg, two weeks after dosing

## CN(C)CCc1c[nH]c2cccc(OP(=O)(O)O)c12 [psilocybin, 3-(2-dimethylaminoethyl)-1H-indol-4-yl] dihydrogen phosphate]
[1]; cluster headache study, 3-dose pulse 0.143 mg/kg
  serious or unexpected adverse events: no serious or unexpected adverse events
[1]; follow-up in the 6 months after study participation
  lasting physical or psychological changes: no lasting physical or psychological changes
[1]; self-limiting
  most commonly reported adverse events during acute exposure: nausea and anxiety
[2]; 0-3 VAS, single oral dose 0.143 mg/kg, mean (SEM), P=0.0235 vs placebo
  change from baseline in attack-related functional impairment: −0.96 (0.26)
[2]; [3]
  subjects with no migraine attacks after administration: 2 subjects
  subjects with only one migraine attack after administration: 2 subjects
[2]; single oral dose 0.143 mg/kg, 14 days after dosing, mean (SEM), 10 subjects, P=0.0027 vs placebo
  change in weekly migraine days (WMD) from baseline: −1.65 (0.39) days/week
[2]; single oral dose 0.143 mg/kg, mean (SEM), 15 days used when no attack, P=0.0119 vs placebo
  time to the second migraine attack after drug administration: 10.30 (1.61) days
[2]; single oral dose 0.143 mg/kg, mean (SEM), 15 days used when no attack, P=0.0554 vs placebo
  time to the first migraine attack after drug administration: 6.30 (1.88) days
[2]; single oral dose 0.143 mg/kg, mean (SEM), P=0.0039 vs placebo
  change from baseline in weekly migraine attacks (WMA): −1.40 (0.36) attacks/week
[2]; single oral dose 0.143 mg/kg, mean (SEM), P=0.0109 vs placebo
  change from baseline in pain severity: −0.70 (0.16)
[2]; single oral dose 0.143 mg/kg, mean (SEM), P=0.0140 vs placebo
  change from baseline in weekly migraine abortive use: −0.65 (0.21) abortives/week
[2]; [4]
  percentage of subjects who had 25% reduction in WMD: 80%
  percentage of subjects who had 50% reduction in WMD: 50%
  percentage of subjects who had 75% reduction in WMD: 30%
